Measurements published in US8614290B2, “Cancer imaging and treatment” (Technische Universitat Munchen, priority 2007, dated 2013).
Where “and” joins values, the source holds several entries; their conditions need not be identical. Equal values may be shown once. Square brackets hold non-standard residues; d marks the D form. Peptide text beside a SMILES is read from it. * marks the point of attachment. 2Nal = N[C@@H](Cc1ccc2ccccc2c1)C(=O)O; dNMeOrn = CN[C@H](CCCN)C(=O)O; X3 = NC(=O)CCCC(=O)*

Tests used:
[1] = tested on: CMS5/CXCR4 tumours; test: Biodistribution of 125I-CPCR4 in CMS5 and CMS5/CXCR4 tumour bearing nude mice; assay type: in vivo; conditions: for accumulation in CMS5/CXCR4 tumours / accumulation in parental CMS5 (CXCR4 negative control) tumours: i.v.
Experimental: For animal experiments parental CMS5 cells and transduced CMS5/CXCR4 cells were injected subcutaneously in female Swiss nu/nu mice (Charles River, France). Therefore for each mouse 1.5×10^6 CMS5 cells and 2×10^6 CMS5/CXCR4 cells were resuspended in 75 μl PBS, respectively and mixed with the same volume Matrigel-Matrix HC (BD Biosciences, Heidelberg, Germany) according to the manufacturer's protocol. Subsequently cell suspension was inoculated at each shoulder, respectively. After 14-16 days of tumour growth mice were used for imaging and biodistribution purposes. All animal experiments were approved by the local authorities and are in compliance with the institutions guidelines.
The animals were sacrificed and dissected 30, 60 and 120 min after tracer injection. Organs of interest were removed and the radioactivity was measured in weighted tissue samples using the 1480 Wizard3 gamma counter from Wallac (Turku, Finland). Results are expressed as percent injected dose per gram tissue weight (% ID/g). Each value represents the mean of four to six animals.

[2] = molecular target: T1, human CXCR4 (Homo sapiens, UniProt P61073); test: Radioligand (saturation) binding of 125I-CPCR4 on Jurkat and CMS5/CXCR4 cells; design: Jurkat cells that endogenously express the CXCR4 receptor; endogenous in cells; host or cells: Jurkat cells
Experimental: For receptor binding assays cells were resuspended in PBS/0.2% BSA. A total of 200 μl of the suspension containing 400,000 Jurkat cells were incubated with 25 μl of the tracer solution (containing 3.1 kBq, approx. 0.1 nM) and 25 μl of the diluent or the competitor at different concentrations. […] Nonspecific binding was determined in the presence of 1 μM cold cyclo(D-Tyr^1[^127I]-Arg^2-Arg^3-Nal^4-Gly^5). After shaking for 2 h at room temperature, the incubation was terminated by centrifugation at 1300 rpm for 5 min. Cell pellets were washed once with cold PBS followed by a second centrifugation step. Cell bound radioactivity was determined by using a gamma counter. Experiments were repeated 2-3 times in triplicates. IC50 values of the compounds were calculated by nonlinear regression using GraphPad Prism (GraphPad Prism 4.0 Software, Inc., San Diego, Calif., USA). Each data point is the average of three determinations.
Whereas for Jurkat cells the Bmax value was more dependent on origin and varies stronger with culture conditions, the number of binding sites (Bmax) on CMS5/CXCR4 cells was constant and better reproducible (23±6 fmol receptor protein).

[3] = molecular target: T1, human CXCR4; test: Receptor internalization: tracer release after acidic buffer wash; assay type: cell-based; design: Jurkat cells that endogenously express the CXCR4 receptor; endogenous in cells; host or cells: Jurkat cells; conditions: after two short washing steps with acidic buffer (pH5.0)
From the text: Thereafter the tracer was mostly releasable from the receptor (>80%).

[4] = molecular target: T1, human CXCR4; test: Receptor functionality: FACS staining of surface CXCR4 after pre-incubation with SDF-1α; assay type: cell-based; design: expressed in transfected cells; host or cells: murine CMS5 fibrosarcoma cells, retroviral vector pBulletCXCR4-IRES-eGFP
From the text: CXCR-4 staining was plotted against EGFP fluorescence (FL1).

[5] = molecular target: T1, human CXCR4; test: Competitive receptor binding assay on Jurkat cells with 125I-CPCR4 as tracer; design: Jurkat cells that endogenously express the CXCR4 receptor; endogenous in cells; host or cells: Jurkat cells; conditions: Table 10, dimers and monomers; read-out: IC50
Experimental: For receptor binding assays cells were resuspended in PBS/0.2% BSA. A total of 200 μl of the suspension containing 400,000 Jurkat cells were incubated with 25 μl of the tracer solution (containing 3.1 kBq, approx. 0.1 nM) and 25 μl of the diluent or the competitor at different concentrations. […] After shaking for 2 h at room temperature, the incubation was terminated by centrifugation at 1300 rpm for 5 min. Cell pellets were washed once with cold PBS followed by a second centrifugation step. Cell bound radioactivity was determined by using a gamma counter. Experiments were repeated 2-3 times in triplicates. IC50 values of the compounds were calculated by nonlinear regression using GraphPad Prism (GraphPad Prism 4.0 Software, Inc., San Diego, Calif., USA). Each data point is the average of three determinations.

[6] = 60 min (1 h) post injection, listed as radiolabeled CPCR4

T1 sequence (P61073 whole entry): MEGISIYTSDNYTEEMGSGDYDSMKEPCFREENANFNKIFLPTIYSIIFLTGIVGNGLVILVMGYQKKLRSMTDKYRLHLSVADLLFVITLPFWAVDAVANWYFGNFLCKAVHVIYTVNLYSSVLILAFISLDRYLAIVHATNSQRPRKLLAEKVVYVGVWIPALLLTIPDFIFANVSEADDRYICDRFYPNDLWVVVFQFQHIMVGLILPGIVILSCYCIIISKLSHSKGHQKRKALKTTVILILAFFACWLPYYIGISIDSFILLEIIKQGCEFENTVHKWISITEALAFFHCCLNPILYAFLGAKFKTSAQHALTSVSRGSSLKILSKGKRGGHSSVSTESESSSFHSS

In the case of “cyclo(D-Tyr^1[^125I]-Arg^2-Arg^3-Nal^4-Gly^5) [^125I-CPCR4]”, the accumulation in intestine ([1]; 30 min post injection) is reported as 16.0 (±4.7) % ID/g, the accumulation in liver ([1]; 30 min post injection) is reported as 27.7 (±4.9) % ID/g and the “accumulation in CMS5/CXCR4 tumours” value ([1]; 30 min post injection) is reported as 4.7 (±1.3) % ID/g. For the same compound, the accumulation in kidneys ([1]; 60 min (1 h) post injection) was 12.2 (±2.3) % ID/g, the “accumulation in CMS5/CXCR4 tumours” value ([1]; 60 min (1 h) post injection) was 5.5 (±1.5) % ID/g and 5.5 % ID/g and the “accumulation in parental CMS5 (CXCR4 negative control) tumours” value ([1]; 60 min (1 h) post injection) was 0.6 (±0.2) % ID/g. The “accumulation in CMS5/CXCR4 tumours” value [1, 6] was 5.5±1.5 % ID/g, the “accumulation in parental CMS5 (CXCR4 negative control) tumours” value [1, 6] was 0.6±0.2 % ID/g and the accumulation in kidneys [1, 6] was 12.2±2.3 % ID/g. The “tracer uptake in intestine” value ([1]; 1 h post injection) was 17.2±2.9 % ID/g, the “tracer uptake in liver” value ([1]; 1 h post injection) was 19.5±2.8 % ID/g and the background accumulation ([1]; 1 h post injection, other organs) was < 1.0 % ID/g. The accumulation in intestine ([1]; 120 min post injection) was 19.2 (±4.5) % ID/g, the accumulation in kidneys ([1]; 120 min post injection) was 8.2 (±1.1) % ID/g and the accumulation in liver ([1]; 120 min post injection) was 15.0 (±1.8) % ID/g. The “accumulation in CMS5/CXCR4 tumours” value ([1]; 120 min post injection) was 3.8 (±1.4) % ID/g, the “increased accumulation in CXCR4+ tumors compared to control tumors” value ([1]; preliminary animal studies) was “around 10 times” and the specific binding [2] was > 90%. The “tracer releasable from the receptor” value [3] was > 80%.

SDF-1α was tested, and the “mean fluorescence intensity, CMS5/CXCR4 cells” value ([4]; SDF-1α treated, mock treated 209.0) was 80.5 and the “CMS5/CXCR4 cells stained positive for CXCR4” value ([4]; after pre-incubation with human SDF-1α 100 nM, 1 hr 37° C., control-treated […]) was 54.7%.

`CN1C(=O)[C@@H](Cc2ccc(O)cc2)NC(=O)CNC(=O)[C@H](Cc2ccc3ccccc3c2)NC(=O)[C@H](CCCNC(=N)N)NC(=O)[C@H]1CCCNC(=O)CCCC(N)=O` [Monomer + Glutaric acid monoamide] (cyclo([2Nal]G[dY][dNMeOrn](X3)R)) showed an IC50 [5] of 66.5 nM.

With `CN1C(=O)[C@@H](Cc2ccc(O)cc2)NC(=O)CNC(=O)[C@H](Cc2ccc3ccccc3c2)NC(=O)[C@H](CCCNC(=N)N)NC(=O)[C@H]1CCCNC(=O)C[C@H](NC(=O)CCCCCNC(=O)CN1CCN(CC(=O)O)CCN(CC(=O)O)CCN(CC(=O)O)CC1)C(=O)NCCC[C@@H]1C(=O)N[C@@H](CCCNC(=N)N)C(=O)N[C@@H](Cc2ccc3ccccc3c2)C(=O)NCC(=O)N[C@H](Cc2ccc(O)cc2)C(=O)N1C` [NMe-D-Orn DOTAAhxAsp] the IC50 [5] was 92.1 nM.
